We go through 18 molecules from PubChem BioAssay AID248 (DTP/NCI, 2004).

In this assay the test system is L1210 leukemia ip in BDF1 mice, survival T/C. Description: NCI In Vivo Anticancer Drug Screen. Data for tumor model L1210 Leukemia (intraperitoneal) in B6D2F1 (BDF1) mice. As to conditions: endpoint: mean survival time, higher = longer survival. In short, it runs like this:
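Transplanted-tumor mice were given test agent; controls received vehicle only. Survival readings from the two groups were divided (treated over control).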

Where [1] appears, read: dose: 100.0 mg/kg/injection, schedule: Q01DX009 (ip), vehicle: saline with Tween-80.
Where [2] appears, read: dose: 100.0 mg/kg/injection, schedule: Q04DX002 (ip), vehicle: saline with Tween-80.
Setting [3] is: dose: 100.0 mg/kg/injection, schedule: Q04DX003 (ip), vehicle: saline with Tween-80.
The mark [4] stands for this setting: dose: 200.0 mg/kg/injection, schedule: Q01DX009 (ip), vehicle: saline with Tween-80.
The mark [5] stands for this setting: dose: 200.0 mg/kg/injection, schedule: Q04DX002 (ip), vehicle: saline with Tween-80.
Where [6] appears, read: dose: 200.0 mg/kg/injection, schedule: Q04DX003 (ip), vehicle: saline with Tween-80.
Where [7] appears, read: dose: 400.0 mg/kg/injection, schedule: Q01DX009 (ip), vehicle: saline with Tween-80.
The mark [8] stands for this setting: dose: 400.0 mg/kg/injection, schedule: Q04DX002 (ip), vehicle: saline with Tween-80.
Setting [9] is: dose: 400.0 mg/kg/injection, schedule: Q04DX003 (ip), vehicle: saline with Tween-80.
Where [10] appears, read: dose: 100.0 mg/kg/injection, schedule: Q01DX001 (ip), vehicle: saline.
Where [11] appears, read: dose: 200.0 mg/kg/injection, schedule: Q01DX001 (ip), vehicle: saline.
Setting [12] is: dose: 25.0 mg/kg/injection, schedule: Q01DX009 (ip), vehicle: Klucel (hydroxypropylcellulose) (HPC).
Where [13] appears, read: dose: 50.0 mg/kg/injection, schedule: Q01DX009 (ip), vehicle: Klucel (hydroxypropylcellulose) (HPC).
Where [14] appears, read: dose: 12.5 mg/kg/injection, schedule: Q04DX003 (ip), vehicle: saline.
The mark [15] stands for this setting: dose: 25.0 mg/kg/injection, schedule: Q04DX003 (ip), vehicle: saline.
Setting [16] is: dose: 100.0 mg/kg/injection, schedule: Q01DX009 (ip), vehicle: Klucel (hydroxypropylcellulose) (HPC).
[17] abbreviates: dose: 100.0 mg/kg/injection, schedule: Q04DX003 (ip), vehicle: Klucel (hydroxypropylcellulose) (HPC).
The mark [18] stands for this setting: dose: 200.0 mg/kg/injection, schedule: Q04DX003 (ip), vehicle: Klucel (hydroxypropylcellulose) (HPC).
[19] abbreviates: dose: 200.0 mg/kg/injection, schedule: Q01DX009 (ip), vehicle: Klucel (hydroxypropylcellulose) (HPC).
The mark [20] stands for this setting: dose: 400.0 mg/kg/injection, schedule: Q01DX009 (ip), vehicle: Klucel (hydroxypropylcellulose) (HPC).

Values joined by “and” are separate entries in the source; they are usually repeats but may differ in a detail not shown here. Equal values may be shown once. Toxic doses and inconclusive results are not listed.

In the case of `COC1OC2COC(c3ccccc3)OC2C2OC12` (stereo not given), the T/C (dose: 100.0 mg/kg/injection, schedule: Q01DX001 (ip), vehicle: saline with Tween-80) was 94 % of control; the T/C under setting [1] was 102 % of control; the T/C under setting [2] was 100 % of control and 90 % of control; the T/C under setting [3] was 91 % of control and 86 % of control; the T/C (dose: 200.0 mg/kg/injection, schedule: Q01DX001 (ip), vehicle: saline with Tween-80) is 88 % of control; the T/C under setting [4] is 102 % of control. Moreover, the T/C under setting [5] is 96 % of control and 111 % of control; the T/C under setting [6] was 100 % of control and 88 % of control; the T/C (dose: 400.0 mg/kg/injection, schedule: Q01DX001 (ip), vehicle: saline with Tween-80) was 88 % of control; the T/C under setting [7] is 97 % of control; the T/C under setting [8] was 100 % of control and 97 % of control; the T/C under setting [9] was 90 % of control and 93 % of control.

Regarding `COC(=O)/C=C(\C)Nc1ccc([N+](=O)[O-])cc1`, the T/C is, setting by setting: under setting [10], 97 % of control; under setting [11], 93 % of control; (dose: 400.0 mg/kg/injection, schedule: Q01DX001 (ip), vehicle: saline) 92 % of control.

In the case of `COC1(OC)CC2C(=O)CCCC21OC` (stereo not given), the T/C under setting [2] is 100 % of control, the T/C under setting [5] was 93 % of control and the T/C under setting [8] is 97 % of control.

On to `C[As](C)(=S)[As](C)(C)=S`, for which the T/C is, setting by setting: (dose: 12.5 mg/kg/injection, schedule: Q01DX009 (ip), vehicle: Klucel (hydroxypropylcellulose) (HPC)) 97 % of control; (dose: 12.5 mg/kg/injection, schedule: Q04DX002 (ip), vehicle: Klucel (hydroxypropylcellulose) (HPC)) 107 % of control and 88 % of control; under setting [12], 97 % of control; (dose: 25.0 mg/kg/injection, schedule: Q04DX002 (ip), vehicle: Klucel (hydroxypropylcellulose) (HPC)) 96 % of control and 91 % of control; under setting [13], 87 % of control.

Regarding `CC1(C)OC2COC(c3cc(C(N)=O)n[nH]3)C2O1` (stereo not given), the T/C under setting [3] was 97 % of control, the T/C under setting [6] was 100 % of control and the T/C under setting [9] is 100 % of control.

Consider `Cn1c(=O)c2ccc(C(=O)O)cc2c(=O)n1C`, for which the T/C runs as follows: under setting [14], 97 % of control; under setting [15], 98 % of control; (dose: 50.0 mg/kg/injection, schedule: Q04DX003 (ip), vehicle: saline) 103 % of control; (dose: 100.0 mg/kg/injection, schedule: Q04DX003 (ip), vehicle: saline) 106 % of control; (dose: 200.0 mg/kg/injection, schedule: Q04DX003 (ip), vehicle: saline) 92 % of control; (dose: 400.0 mg/kg/injection, schedule: Q04DX003 (ip), vehicle: saline) 98 % of control.

As to `C=CCOCC(O)CN(CCC(C)C)CCC(C)C` (stereo not given), the T/C is, setting by setting: under setting [12], 95 % of control; under setting [13], 97 % of control; under setting [16], 96 % of control and 100 % of control; under setting [17], 102 % of control; under setting [18], 91 % of control.

Consider `C1CC2CCCC3CC(B4OCCO4)CC(C1)C23` (stereo not given) (tested in a mixture with another compound), for which the T/C was 101 % of control (dose: 100.0 mg/kg/injection, schedule: Q01DX009 (ip), vehicle: other); 97 % of control under setting [3]; 105 % of control (dose: 200.0 mg/kg/injection, schedule: Q01DX009 (ip), vehicle: other); 92 % of control under setting [6]; 108 % of control (dose: 400.0 mg/kg/injection, schedule: Q01DX009 (ip), vehicle: other); 106 % of control under setting [9].

Turning to `CCN(CC)CN(CC)CC`, the T/C reads like this: (dose: 25.0 mg/kg/injection, schedule: Q04DX002 (ip), vehicle: saline with Tween-80) 103 % of control; (dose: 50.0 mg/kg/injection, schedule: Q04DX002 (ip), vehicle: saline with Tween-80) 100 % of control; under setting [2], 98 % of control and 103 % of control.

In the case of `C[n+]1ccc2ccccc2c1CCCc1nccc2ccccc12`, the T/C is 111 % of control (dose: 6.25 mg/kg/injection, schedule: Q01DX009 (ip), vehicle: saline with Tween-80); 97 % of control (dose: 6.25 mg/kg/injection, schedule: Q04DX003 (ip), vehicle: saline); 117 % of control (dose: 12.5 mg/kg/injection, schedule: Q01DX009 (ip), vehicle: saline with Tween-80); 100 % of control under setting [14]; 112 % of control (dose: 25.0 mg/kg/injection, schedule: Q01DX009 (ip), vehicle: saline with Tween-80); 114 % of control under setting [15].

On to `CCOC(=O)C1CCNC(=O)C1=O` (stereo not given), for which the T/C reads like this: (dose: 50.0 mg/kg/injection, schedule: Q01DX001 (ip), vehicle: saline) 104 % of control; under setting [10], 101 % of control; under setting [11], 97 % of control.

In the case of `O=C(c1ccccc1Cl)N(Cc1ccccc1)c1ccccc1`, the T/C reads like this: under setting [16], 102 % of control; under setting [19], 103 % of control; under setting [20], 100 % of control.

`Cc1ccccc1-n1c(C)cc(C(=O)O)c1C`: the T/C is 110 % of control under setting [16]; 102 % of control under setting [17]; 93 % of control under setting [19]; 106 % of control under setting [18]; 98 % of control under setting [20]; 88 % of control (dose: 400.0 mg/kg/injection, schedule: Q04DX003 (ip), vehicle: Klucel (hydroxypropylcellulose) (HPC)).

Turning to `CCN(CC)CCOC(=O)CSC1C2CC3C(C2)C31` (stereo not given), the T/C (dose: 50.0 mg/kg/injection, schedule: Q01DX009 (ip), vehicle: saline) was 94 % of control; the T/C (dose: 100.0 mg/kg/injection, schedule: Q01DX009 (ip), vehicle: saline) is 90 % of control; the T/C (dose: 200.0 mg/kg/injection, schedule: Q01DX009 (ip), vehicle: saline) is 123 % of control.

Take `O=C(Nc1ccc(C2=NCCN2)cc1)c1ccc(C(=O)Nc2ccc(C3=NCCN3)cc2)c(F)c1`: the T/C by setting is: (dose: 2.75 mg/kg/injection, schedule: Q01DX Z (ip), vehicle: carboxymethylcellulose (CMC)) 119 % of control; (dose: 11.0 mg/kg/injection, schedule: Q01DX Z (ip), vehicle: carboxymethylcellulose (CMC)) 122 % of control; (dose: 22.0 mg/kg/injection, schedule: Q01DX Z (ip), vehicle: carboxymethylcellulose (CMC)) 227 % of control; (dose: 31.0 mg/kg/injection, schedule: Q01DX Z (oral), vehicle: carboxymethylcellulose (CMC)) 100 % of control; (dose: 45.0 mg/kg/injection, schedule: Q01DX Z (ip), vehicle: carboxymethylcellulose (CMC)) 291 % of control; (dose: 62.0 mg/kg/injection, schedule: Q01DX Z (oral), vehicle: carboxymethylcellulose (CMC)) 101 % of control. Also, the T/C was 167 % of control (dose: 90.0 mg/kg/injection, schedule: Q01DX Z (ip), vehicle: carboxymethylcellulose (CMC)); 105 % of control (dose: 112.0 mg/kg/injection, schedule: Q01DX Z (oral), vehicle: carboxymethylcellulose (CMC)); 94 % of control (dose: 180.0 mg/kg/injection, schedule: Q01DX Z (ip), vehicle: carboxymethylcellulose (CMC)); 103 % of control (dose: 225.0 mg/kg/injection, schedule: Q01DX Z (oral), vehicle: carboxymethylcellulose (CMC)).

Consider `Brc1ccc(N(Cc2ccccc2)Cc2ccccc2)cc1`, for which the T/C reads like this: under setting [1], 100 % of control; under setting [4], 86 % of control; under setting [7], 89 % of control.

For the molecule `O=c1[nH]cnc2c1ncn2C1OC(CI)C(O)C1O` (stereo not given), the T/C (dose: 100.0 mg/kg/injection, schedule: Q01DX005 (ip), vehicle: saline) was 95 % of control and the T/C (dose: 200.0 mg/kg/injection, schedule: Q01DX005 (ip), vehicle: saline) was 101 % of control.

Consider `CC(NC(=O)OCc1ccccc1)C(=O)NC(Cc1ccc(O)cc1)C(=O)OCc1ccccc1` (stereo not given), for which the T/C is, setting by setting: under setting [3], 97 % of control; under setting [6], 90 % of control; under setting [9], 93 % of control.
